The target in one assay is GPIIb/IIIa (Homo sapiens, UniProt P05106+P08514). Nature of the assay: In vitro solid phase purified glycoprotein IIb/IIIa binding assay (biotinylated fibrinogen). The note with it: RGD-affinity purified GPIIb/IIIa, biotinylated fibrinogen; read-out: GPIIb/IIIa Binding IC50. The procedure:
(§1) In vitro Solid Phase Purified αvβ3 Binding Assay The vitronectin/αvβ3 binding assay methods were derived from Mehta et al. (Biochem J. 1998, 330, 861). Human αvβ3 (Chemicon International Inc., Temecula, Calif.), at a concentration of 1 μg/ml dissolved in Tris buffer (20 mM Tris, 1 mM CaCl2, 1 mM MgCl2, 10 μM MnCl2, 150 mM NaCl), was immobilized on Immulon 96 well plates (Dynex Technologies, Chantilly, Va.) overnight at 4° C. Plates were washed and treated with blocking buffer (3% BSA in Tris buffer) for 2 h at 37 C. Plates were then rinsed 2 times in Tris buffer containing 0.3% BSA and 0.2% Tween20 (polyoxyethylenesorbitan monolaurate). Five minutes prior to the addition of 5 nM vitronectin (Sigma, St. Louis, Mo.), compounds of the invention were added to wells in duplicate. Each plate included c-RGDfV as an internal control. Following a 3 hour incubation at 37° C., plates were washed 5 times in assay buffer. An anti-human vitronectin IgG rabbit polyclonal antibody (Calbiochem, San Diego, Calif.) was added (1:2000) and plates were incubated for 1 hour at room temperature. VectaStain ABC peroxidase kit reagents (Vector Laboratories, Burlingame, Calif.) employing a biotin labeled anti-rabbit IgG, were utilized for detection of bound antibody. Plates were read at 490 nm on a Molecular Devices (Sunnyvale, Calif.) microplate reader. […] The plate was covered and incubated overnight at 4° C. The GPIIb/IIIa solution was discarded and 150 μl of 5% BSA was added and incubated at RT for 1–3 h. The plate was washed extensively with modified Tyrodes buffer. Biotinylated fibrinogen (25 μl/well) at 2× final concentration was added to the wells that contain the test compounds (25 μl/well). The plate was covered and incubated at RT for 2–4 h. Twenty minutes prior to incubation completion, one drop of Reagent A (VectaStain ABC Horse Radish Peroxidase kit, Vector Laboratories, Inc.) and one drop Reagent B were added with mixing to 5 mL modified Tyrodes buffer mix and let stand. The ligand solution was discarded and the plate washed (5×200 μl/well) with modified Tyrodes buffer. Vecta Stain HRP-Biotin-Avidin reagent (50 μl/well, as prepared above) was added and incubated at RT for 15 min. The Vecta Stain solution was discarded and the wells washed (5×200 μl/well) with modified Tyrodes buffer. Developing buffer (10 mL of 50 mM citrate/phosphate buffer @ pH 5.3, 6 mg o-phenylenediamine, 6 μl 30% H2O2; 50 μl/well) was added and incubated at rt for 3–5 min, and then 2 N H2SO4 (50 μl/well) was added. The absorbance was read at 490 nm.

A further assay concerns the target T1, Human αvβ3 (Homo sapiens, UniProt P05106+P06756).
T1 construct: purchased Chemicon International Inc., Temecula, Calif
The experiment in a line: In vitro solid phase purified αvβ3 binding assay (vitronectin/αvβ3). The note with it: isolated human αvβ3, 5 nM vitronectin; read-out: αvβ3 Binding IC50. The procedure: as §1

Our source for the IC50 values is patent US7081460B2, “Quinazoline and quinazoline-like compounds for the treatment of integrin-mediated disorders” (Ortho-McNeil Pharmaceutical, Inc., priority 2001, dated 2006).

Chain of GPIIb/IIIa (P08514 32-887 limits assumed): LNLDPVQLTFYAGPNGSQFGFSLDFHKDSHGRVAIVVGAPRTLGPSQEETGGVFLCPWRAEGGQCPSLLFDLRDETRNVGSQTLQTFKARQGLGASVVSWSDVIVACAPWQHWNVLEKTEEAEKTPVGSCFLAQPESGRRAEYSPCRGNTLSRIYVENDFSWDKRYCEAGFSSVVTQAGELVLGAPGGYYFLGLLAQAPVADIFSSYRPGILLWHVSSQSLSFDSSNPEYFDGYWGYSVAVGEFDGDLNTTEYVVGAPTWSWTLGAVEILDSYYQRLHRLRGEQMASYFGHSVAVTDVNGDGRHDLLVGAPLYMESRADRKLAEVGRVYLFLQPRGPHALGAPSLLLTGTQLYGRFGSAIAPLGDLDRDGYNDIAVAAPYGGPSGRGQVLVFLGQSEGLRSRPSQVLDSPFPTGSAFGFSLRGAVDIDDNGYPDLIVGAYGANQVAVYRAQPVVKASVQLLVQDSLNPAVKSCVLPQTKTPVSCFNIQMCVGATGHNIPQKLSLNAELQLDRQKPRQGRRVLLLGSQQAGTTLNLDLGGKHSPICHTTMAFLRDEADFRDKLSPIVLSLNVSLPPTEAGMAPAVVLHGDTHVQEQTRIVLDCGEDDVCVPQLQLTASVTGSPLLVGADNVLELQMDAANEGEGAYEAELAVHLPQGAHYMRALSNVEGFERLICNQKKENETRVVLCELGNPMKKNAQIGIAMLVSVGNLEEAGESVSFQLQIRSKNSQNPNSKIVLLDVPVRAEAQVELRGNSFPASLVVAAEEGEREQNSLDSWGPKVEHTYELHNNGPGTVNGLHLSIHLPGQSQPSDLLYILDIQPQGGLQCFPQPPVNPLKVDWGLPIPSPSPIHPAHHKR
Chain of GPIIb/IIIa (P08514 891-1039 partner limits assumed): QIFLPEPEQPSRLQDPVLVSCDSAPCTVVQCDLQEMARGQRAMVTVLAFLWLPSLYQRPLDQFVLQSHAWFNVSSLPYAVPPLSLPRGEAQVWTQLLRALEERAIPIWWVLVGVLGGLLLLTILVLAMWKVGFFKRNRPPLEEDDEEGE
Chain of GPIIb/IIIa (P05106 27-788): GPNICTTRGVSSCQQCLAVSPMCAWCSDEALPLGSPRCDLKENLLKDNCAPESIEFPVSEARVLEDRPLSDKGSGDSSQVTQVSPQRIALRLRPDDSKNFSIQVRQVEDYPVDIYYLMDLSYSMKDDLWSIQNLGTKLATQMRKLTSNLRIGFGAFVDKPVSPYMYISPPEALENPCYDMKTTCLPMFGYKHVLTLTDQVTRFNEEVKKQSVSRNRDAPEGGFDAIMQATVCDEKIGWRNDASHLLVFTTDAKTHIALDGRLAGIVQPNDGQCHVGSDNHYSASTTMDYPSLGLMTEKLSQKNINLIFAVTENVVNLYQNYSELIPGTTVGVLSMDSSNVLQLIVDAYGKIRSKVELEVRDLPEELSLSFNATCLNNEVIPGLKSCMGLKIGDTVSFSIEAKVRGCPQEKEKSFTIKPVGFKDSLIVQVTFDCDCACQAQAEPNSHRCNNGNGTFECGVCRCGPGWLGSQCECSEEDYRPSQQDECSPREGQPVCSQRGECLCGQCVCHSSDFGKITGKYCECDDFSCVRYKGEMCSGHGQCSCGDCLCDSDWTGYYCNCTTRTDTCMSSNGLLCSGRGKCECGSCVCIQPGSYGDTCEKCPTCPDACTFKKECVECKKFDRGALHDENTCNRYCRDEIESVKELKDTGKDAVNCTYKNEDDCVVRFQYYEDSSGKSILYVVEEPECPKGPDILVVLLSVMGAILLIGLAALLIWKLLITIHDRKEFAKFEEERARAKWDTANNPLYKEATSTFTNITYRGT
T1 sequence (P06756 31-889 limits assumed): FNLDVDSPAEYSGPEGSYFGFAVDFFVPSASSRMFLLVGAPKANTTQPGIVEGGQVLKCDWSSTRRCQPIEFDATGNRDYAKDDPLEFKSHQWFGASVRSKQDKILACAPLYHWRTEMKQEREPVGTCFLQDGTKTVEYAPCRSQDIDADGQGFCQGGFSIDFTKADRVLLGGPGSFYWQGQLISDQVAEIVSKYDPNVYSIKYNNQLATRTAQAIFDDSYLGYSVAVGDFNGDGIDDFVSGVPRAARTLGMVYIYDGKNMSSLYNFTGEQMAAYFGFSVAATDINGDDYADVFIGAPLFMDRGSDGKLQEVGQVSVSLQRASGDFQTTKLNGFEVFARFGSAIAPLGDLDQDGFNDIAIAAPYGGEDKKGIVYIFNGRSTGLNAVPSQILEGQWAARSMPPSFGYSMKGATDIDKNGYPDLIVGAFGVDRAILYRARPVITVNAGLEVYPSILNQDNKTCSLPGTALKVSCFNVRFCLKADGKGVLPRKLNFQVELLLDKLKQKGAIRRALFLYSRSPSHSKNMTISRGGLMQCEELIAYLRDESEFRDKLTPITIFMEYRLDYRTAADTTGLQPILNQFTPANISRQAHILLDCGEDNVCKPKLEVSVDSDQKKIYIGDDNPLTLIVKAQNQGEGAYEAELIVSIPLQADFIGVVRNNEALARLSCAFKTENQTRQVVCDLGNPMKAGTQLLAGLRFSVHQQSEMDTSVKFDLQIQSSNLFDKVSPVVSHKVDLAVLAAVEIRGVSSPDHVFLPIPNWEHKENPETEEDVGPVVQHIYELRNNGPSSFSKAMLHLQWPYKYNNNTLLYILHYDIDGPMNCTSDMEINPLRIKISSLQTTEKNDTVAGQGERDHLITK
T1 sequence (P06756 891-1048 partner limits assumed): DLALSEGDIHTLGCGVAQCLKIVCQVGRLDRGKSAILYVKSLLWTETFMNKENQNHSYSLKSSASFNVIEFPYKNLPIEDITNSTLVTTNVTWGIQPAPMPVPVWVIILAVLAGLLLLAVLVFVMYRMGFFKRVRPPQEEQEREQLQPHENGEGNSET
T1 sequence (P05106 27-788): as the sequence (P05106 27-788) above

Consider `Cc1cccnc1NC/C=C/c1ccc2nc(C[C@H](NS(=O)(=O)c3c(C)c(C)c(C)c(C)c3C)C(=O)O)[nH]c(=O)c2c1` [Compound 38, (αS)-3,4-dihydro-6-[(1E)-3-[(3-methyl-2-pyridinyl)amino]-1-propenyl]-4-oxo-α-[[(2,3,4,5,6-pentamethylphenyl)sulfonyl]amino]-2-quinazolinepropanoic acid], for which the IC50 on GPIIb/IIIa was found to be 220 nM; on Human αvβ3, 1400 nM.
On the same counts, the results for `Cc1c(C)c(C)c(S(=O)(=O)N[C@@H](Cc2nc3ccc(/C=C/CNc4ccc(Cl)cn4)cc3c(=O)[nH]2)C(=O)O)c(C)c1C` [Compound 39, 6-[(1E)-3-[(5-chloro-2-pyridinyl)amino]-1-propenyl]-(αS)-3,4-dihydro-4-oxo-α-[[(2,3,4,5,6-pentamethylphenyl)sulfonyl]amino]-2-quinazolinepropanoic acid] are 1800 nM and 1800 nM.
Take `COc1ccc(S(=O)(=O)N[C@@H](Cc2nc3ccc(/C=C/CNc4ccc(Cl)cn4)cc3c(=O)[nH]2)C(=O)O)cc1` [Compound 40, 6-[(1E)-3-[(5-chloro-2-pyridinyl)amino]-1-propenyl]-(αS)-3,4-dihydro-α-[[(4-methoxyphenyl)sulfonyl]amino]-4-oxo-2-quinazolinepropanoic acid]: the IC50 was found to be 1900 nM at GPIIb/IIIa and 740 nM on Human αvβ3.
As to `COC(=O)[C@H](Cc1nc2ccc(/C=C/CNC3=NCCN3)cc2c(=O)[nH]1)NS(=O)(=O)c1c(C)c(C)c(C)c(C)c1C` [Compound 41, 6-[(1E)-3-[(4,5-dihydro-1H-imidazol-2-yl)amino]-1-propenyl]-(αS)-3,4-dihydro-4-oxo-α-[[(2,3,4,5,6-pentamethylphenyl)sulfonyl]amino]methyl ester 2-quinazolinepropanoic acid], the values for the IC50 on GPIIb/IIIa and on Human αvβ3 were 240 nM and 19 nM, respectively.
With `Cc1c(C)c(C)c(S(=O)(=O)N[C@@H](Cc2nc3ccc(/C=C/CCNC4=NCCN4)cc3c(=O)[nH]2)C(=O)O)c(C)c1C` [Compound 42, 6-[(1E)-4-[(4,5-dihydro-1H-imidazol-2-yl)amino]-1-butenyl]-(αS)-3,4-dihydro-4-oxo-α-[[(2,3,4,5,6-pentamethylphenyl)sulfonyl]amino]-2-quinazolinepropanoic acid], the IC50 came out at 60 nM on GPIIb/IIIa and 5.4 nM at Human αvβ3.
Regarding `Cc1ccc(NC/C=C/c2ccc3nc(C[C@H](NS(=O)(=O)c4c(C)c(C)c(C)c(C)c4C)C(=O)O)[nH]c(=O)c3c2)nc1` [Compound 43, (αS)-3,4-dihydro-6-[(1E)-3-[(5-methyl-2-pyridinyl)amino]-1-propenyl]-4-oxo-α-[[(2,3,4,5,6-pentamethylphenyl)sulfonyl]amino]-2-quinazolinepropanoic acid], the IC50 turned out to be 880 nM at GPIIb/IIIa and 22 nM on Human αvβ3.
Consider `COc1ccc(S(=O)(=O)N[C@@H](Cc2nc3ccc(/C=C/CNc4ccc(C)cn4)cc3c(=O)[nH]2)C(=O)O)cc1OC` [Compound 44, α-[[(3,4-dimethoxyphenyl)sulfonyl]amino]-(αS)-3,4-dihydro-6-[(1E)-3-[(5-methyl-2-pyridinyl)amino]-1-propenyl]-4-oxo-2-quinazolinepropanoic acid], for which the IC50 was 790 nM on GPIIb/IIIa and 24 nM at Human αvβ3.
With `Cc1ccnc(NC/C=C/c2ccc3nc(C[C@H](NS(=O)(=O)c4c(C)c(C)c(C)c(C)c4C)C(=O)O)[nH]c(=O)c3c2)c1` [Compound 45, (αS)-3,4-dihydro-6-[(1E)-3-[(4-methyl-2-pyridinyl)amino]-1-propenyl]-4-oxo-α-[[(2,3,4,5,6-pentamethylphenyl)sulfonyl]amino]-2-quinazolinepropanoic acid], the IC50 at GPIIb/IIIa came out at 1800 nM; at Human αvβ3 it was 15 nM.
In the case of `COc1ccc(S(=O)(=O)N[C@@H](Cc2nc3ccc(/C=C/CNc4cc(C)ccn4)cc3c(=O)[nH]2)C(=O)O)cc1OC` [Compound 46, α-[[(3,4-dimethoxyphenyl)sulfonyl]amino]-(αS)-3,4-dihydro-6-[(1E)-3-[(4-methyl-2-pyridinyl)amino]-1-propenyl]-4-oxo-2-quinazolinepropanoic acid], the IC50 was 740 nM on GPIIb/IIIa and 5.8 nM at Human αvβ3.
In the case of `Cc1c(C)c(C)c(S(=O)(=O)N[C@@H](Cc2nc3ccc(/C=C/CNC(=N)c4cccnc4)cc3c(=O)[nH]2)C(=O)O)c(C)c1C` [Compound 47, (αS)-3,4-dihydro-6-[(1E)-3-[(imino-3-pyridinylmethyl)amino]-1-propenyl]-4-oxo-α-[[(2,3,4,5,6-pentamethylphenyl)sulfonyl]amino]-2-quinazolinepropanoic acid], the IC50 was found to be 96 nM on GPIIb/IIIa and 132 nM at Human αvβ3.
On the same counts, the results for `COc1ccc(S(=O)(=O)N[C@@H](Cc2nc3ccc(/C=C/CNC4=NCCN4)cc3c(=O)[nH]2)C(=O)O)cc1OC` [Compound 48, 6-[(1E)-3-[(4,5-dihydro-1H-imidazol-2-yl)amino]-1-propenyl]-α-[[(3,4-dimethoxyphenyl)sulfonyl]amino]-(αS)-3,4-dihydro-4-oxo-2-quinazolinepropanoic acid] are 64 nM and 11 nM.
With `Cc1c(C)c(C)c(S(=O)(=O)N[C@@H](Cc2nc3ccc(/C=C/CNC(=O)NCc4ccccc4)cc3c(=O)[nH]2)C(=O)O)c(C)c1C` [Compound 49, (αS)-3,4-dihydro-4-oxo-α-[[(2,3,4,5,6-pentamethylphenyl)sulfonyl]amino]-6-[(1E)-3-[[(benzylamino)carbonyl]amino]-1-propenyl]-2-quinazolinepropanoic acid], the IC50 stood at 820 nM on GPIIb/IIIa and 8.8 nM on Human αvβ3.
Turning to `COc1ccc(S(=O)(=O)N[C@@H](Cc2nc3ccc(/C=C/CNC4=NCCN4)cc3c(=O)[nH]2)C(=O)O)cc1` [Compound 50, 6-[(1E)-3-[(4,5-dihydro-1H-imidazol-2-yl)amino]-1-propenyl]-(αS)-3,4-dihydro-α-[[(4-methoxyphenyl)sulfonyl]amino]-4-oxo-2-quinazolinepropanoic acid], the IC50 came to 51 nM at GPIIb/IIIa and 6.8 nM at Human αvβ3.
Turning to `CCCCNC(=O)NC/C=C/c1ccc2nc(C[C@H](NS(=O)(=O)c3c(C)c(C)c(C)c(C)c3C)C(=O)O)[nH]c(=O)c2c1` [Compound 51, 6-[(1E)-3-[[(butylamino)carbonyl]amino]-1-propenyl]-(αS)-3,4-dihydro-4-oxo-α-[[(2,3,4,5,6-pentamethylphenyl)sulfonyl]amino]-2-quinazolinepropanoic acid], the IC50 at GPIIb/IIIa was found to be 4800 nM; at Human αvβ3, 17 nM.
On the same counts, the results for `Cc1c(C)c(C)c(S(=O)(=O)N[C@@H](Cc2nc3ccc(/C=C/CNC4=NCCCC4)cc3c(=O)[nH]2)C(=O)O)c(C)c1C` [Compound 52, (αS)-3,4-dihydro-4-oxo-α-(α^2S)-[[(2,3,4,5,6-pentamethylphenyl)sulfonyl]amino]-6-[(1E)-3-[(3,4,5,6-tetrahydro-2-pyridinyl)amino]-1-propenyl]-2-quinazolinepropanoic acid] are 110 nM and 24 nM.
On the same counts, the results for `Cc1c(C)c(C)c(S(=O)(=O)N[C@@H](Cc2nc3ccc(/C=C/CNC(N)=O)cc3c(=O)[nH]2)C(=O)O)c(C)c1C` [Compound 53, 6-[(1E)-3-[(aminocarbonyl)amino]-1-propenyl]-(αS)-3,4-dihydro-4-oxo-α-[[(2,3,4,5,6-pentamethylphenyl)sulfonyl]amino]-2-quinazolinepropanoic acid] are 200 nM and 31 nM.
Regarding `COc1ccc(S(=O)(=O)N[C@@H](Cc2nc3ccc(/C=C/CNC(=O)NCc4ccccc4)cc3c(=O)[nH]2)C(=O)O)cc1OC` [Compound 54, α-[[(3,4-dimethoxyphenyl)sulfonyl]amino]-(αS)-3,4-dihydro-4-oxo-6-[(1E)-3-[[[(phenylmethyl)amino]carbonyl]amino]-1-propenyl]-2-quinazolinepropanoic acid], the IC50 was found to be 5000 nM on GPIIb/IIIa and 38 nM at Human αvβ3.
Regarding `COc1ccc(S(=O)(=O)N[C@@H](Cc2nc3ccc(/C=C/CNC4=NCCC4)cc3c(=O)[nH]2)C(=O)O)cc1OC` [Compound 55, 6-[(1E)-3-[(3,4-dihydro-2H-pyrrol-5-yl)amino]-1-propenyl]-α-[[(3,4-dimethoxyphenyl)sulfonyl]amino]-(αS)-3,4-dihydro-4-oxo-2-quinazolinepropanoic acid], the IC50 is 270 nM on GPIIb/IIIa and 42 nM on Human αvβ3.
